Holding throughout (format): cell-based
In one experiment the target is T1, hNPY2R (Homo sapiens, UniProt P49146).
T1 construct: expressed in transfected cells; host or cells: HEK-293 cells carrying a CRE-luciferase reporter gene
T1 sequence (P49146 1-381): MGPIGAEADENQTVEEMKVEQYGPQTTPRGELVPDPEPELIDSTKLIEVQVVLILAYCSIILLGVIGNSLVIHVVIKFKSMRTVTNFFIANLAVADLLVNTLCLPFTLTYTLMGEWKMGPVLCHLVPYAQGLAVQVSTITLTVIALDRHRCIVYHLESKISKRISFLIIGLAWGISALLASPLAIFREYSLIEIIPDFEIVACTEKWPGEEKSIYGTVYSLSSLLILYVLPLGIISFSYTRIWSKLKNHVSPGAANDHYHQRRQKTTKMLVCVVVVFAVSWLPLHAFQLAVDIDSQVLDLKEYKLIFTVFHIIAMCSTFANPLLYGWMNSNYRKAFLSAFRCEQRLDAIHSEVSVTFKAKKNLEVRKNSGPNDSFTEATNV
The experiment in a line: hNPY2R CreLuc reporter gene assay in 0.5% and 100% plasma. The method, boiled down: (§1)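 HEK cells (GLP-1R, NPY2R) or CHO cells (GIPR) carrying a CRE-luciferase reporter, incubated 4 h at 37 °C with peptides in HBSS/20 mM HEPES pH 7.4 plus 0.5% human plasma, or in 100% plasma. Luminescence read; EC50 from 8-point variable-slope sigmoid fits.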

A further experiment has as its target T2, hGIPR (Homo sapiens, UniProt P48546).
T2 construct: expressed in transfected cells; host or cells: CHO cells carrying a CRE-luciferase reporter gene
T2 sequence (P48546 22-466): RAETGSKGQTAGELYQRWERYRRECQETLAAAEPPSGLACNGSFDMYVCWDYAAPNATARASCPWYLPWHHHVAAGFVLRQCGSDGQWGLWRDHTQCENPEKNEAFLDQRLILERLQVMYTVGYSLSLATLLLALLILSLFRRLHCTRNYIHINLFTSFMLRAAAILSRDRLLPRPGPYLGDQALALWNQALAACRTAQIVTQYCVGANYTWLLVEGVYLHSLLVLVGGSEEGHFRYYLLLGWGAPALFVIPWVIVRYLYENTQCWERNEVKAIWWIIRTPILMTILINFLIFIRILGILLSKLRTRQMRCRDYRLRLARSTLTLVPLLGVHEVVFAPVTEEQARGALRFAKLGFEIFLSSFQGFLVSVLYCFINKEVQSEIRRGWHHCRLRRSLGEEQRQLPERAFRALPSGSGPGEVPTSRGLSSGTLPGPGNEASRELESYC
Nature of the experiment: hGIPR CreLuc reporter gene assay in 0.5% and 100% plasma. The method, boiled down: as §1
On the technique in general: Reporter assays use an easily measured gene product as a stand-in for the process of interest.

The target of a further experiment is T3, hGLP1R (Homo sapiens, UniProt P43220).
T3 construct: expressed in transfected cells; host or cells: HEK-293 cells carrying a CRE-luciferase reporter gene
T3 sequence (P43220 24-463): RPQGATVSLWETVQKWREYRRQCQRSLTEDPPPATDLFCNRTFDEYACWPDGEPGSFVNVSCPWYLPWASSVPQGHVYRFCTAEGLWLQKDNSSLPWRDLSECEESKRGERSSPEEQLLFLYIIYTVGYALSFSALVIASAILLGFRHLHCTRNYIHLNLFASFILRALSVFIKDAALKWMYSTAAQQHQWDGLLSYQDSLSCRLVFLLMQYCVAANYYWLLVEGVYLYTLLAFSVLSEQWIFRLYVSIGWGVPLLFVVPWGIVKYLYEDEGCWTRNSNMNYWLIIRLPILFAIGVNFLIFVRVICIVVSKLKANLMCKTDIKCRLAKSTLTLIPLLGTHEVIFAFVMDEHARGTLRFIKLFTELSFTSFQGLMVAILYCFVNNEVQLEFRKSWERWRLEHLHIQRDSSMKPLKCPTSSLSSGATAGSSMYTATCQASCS
The experiment in a line: hGLP1R CreLuc reporter gene assay in 0.5% and 100% plasma. In a few lines:
as §1

The mark [1] stands for this setting: CreLuc reporter gene assay, 100% human plasma, read-out: hNPY2R 100% hP.
Setting [2] is: CreLuc reporter gene assay, 0.5% human plasma, read-out: hGIPR 0.5% hP.
[3] abbreviates: CreLuc reporter gene assay, 100% human plasma, read-out: hGIPR 100% hP.
Where [4] appears, read: CreLuc reporter gene assay, 0.5% human plasma, read-out: hGLP1R 0.5% hP.
The mark [5] stands for this setting: CreLuc reporter gene assay, 0.5% human plasma, read-out: hNPY2R 0.5% hP.

Like-named read-outs stand apart in the source and are kept apart here. Starred links: 1 amine or outer side, 2 acyl side, 3 side chain; linkers in the order of their positions; H or OH if unused. Non-standard residues stand in square brackets, D forms with d. Groups on a side chain read outwards from the residue. *: point of attachment. C20 diacid = O=C(O)CCCCCCCCCCCCCCCCCCC(=O)*; C18 diacid = O=C(O)CCCCCCCCCCCCCCCCC(=O)*; γGlu = O=C(O)[C@H](CCC(=O)[*:2])N[*:1]; εLys = N[C@@H](CCCCN[*:1])C(=O)[*:2]; AEEA = NCCOCCOCC(=O)O; Aib = CC(C)(N)C(=O)O

With `CC[C@H](C)[C@H](NC(=O)[C@H](CC(C)C)NC(=O)[C@H](Cc1c[nH]c2ccccc12)NC(=O)[C@H](CCC(=O)O)NC(=O)[C@@H](NC(=O)[C@H](Cc1ccccc1)NC(=O)[C@H](C)NC(=O)C(C)(C)NC(=O)[C@H](CCC(N)=O)NC(=O)[C@H](C)NC(=O)[C@H](CCC(N)=O)NC(=O)[C@H](CCCCN)NC(=O)[C@H](CCC(=O)O)NC(=O)[C@H](CC(C)C)NC(=O)C(C)(C)NC(=O)[C@@H](NC(=O)[C@H](CO)NC(=O)[C@H](Cc1ccc(O)cc1)NC(=O)[C@H](CC(=O)O)NC(=O)[C@H](CO)NC(=O)[C@@H](NC(=O)[C@H](Cc1ccccc1)NC(=O)[C@@H](NC(=O)CNC(=O)[C@H](CCC(=O)O)NC(=O)C(C)(C)NC(=O)[C@@H](N)Cc1ccc(O)cc1)[C@@H](C)O)[C@@H](C)O)[C@@H](C)CC)C(C)C)C(=O)N[C@@H](CCCCNC(=O)[C@@H](N)CCCCNC(=O)CC[C@H](NC(=O)CC[C@H](NC(=O)CC[C@H](NC(=O)CC[C@H](NC(=O)CC[C@H](NC(=O)CC[C@H](NC(=O)CCCCCCCCCCCCCCCCCCC(=O)O)C(=O)O)C(=O)O)C(=O)O)C(=O)O)C(=O)O)C(=O)O)C(=O)NCC(=O)NCC(=O)N1CCC[C@H]1C(=O)N[C@@H](CO)C(=O)N[C@@H](CO)C(=O)NCC(=O)N[C@@H](C)C(=O)N[C@@H](CO)C(=O)N[C@@H](CC(C)C)C(=O)N[C@@H](CCCNC(=N)N)C(=O)N[C@@H](Cc1c[nH]cn1)C(=O)N[C@@H](Cc1ccc(O)cc1)C(=O)N[C@@H](CC(C)C)C(=O)N[C@@H](CC(N)=O)C(=O)N[C@@H](Cc1c[nH]c2ccccc12)C(=O)N[C@@H](CC(C)C)C(=O)N[C@H](C(=O)N[C@@H](CCCNC(=N)N)C(=O)N[C@@H](CCC(N)=O)C(=O)N[C@@H](CCCNC(=N)N)C(=O)N[C@@H](Cc1ccc(O)cc1)C(N)=O)[C@@H](C)O` [Compound 86, Y-Aib-E-G-T-F-T-S-D-Y-S-I-Aib-L-E-K-Q-A-Q-Aib-A-F-V-E-W-L-I-K(1,3)-GGPSSGASLRHYLNWLTRQRY-NH2.C20DA-gGlu-gGlu-gGlu-gGlu-gGlu-gGlu-eLys(1,2)], the EC50 on hNPY2R (setting [1]) was found to be 53.1 nM; at hGIPR (setting [2]) it was 0.48 nM; on hGIPR (setting [3]), 1.61 nM; on hGLP1R (setting [4]) it was 0.25 nM.
Consider “H-Y[Aib]EGTFTSDYSI[Aib]LEAQAQ[Aib]AFVEWLIK([εLys-γGlu-γGlu-γGlu-γGlu-γGlu-γGlu-C20 diacid])GGPSSGASLRHYYNWLTRQRY-NH2 [Compound 102, Y-Aib-E-G-T-F-T-S-D-Y-S-I-Aib-L-E-A-Q-A-Q-Aib-A-F-V-E-W-L-I-K(1,3)-GGPSSGASLRHYYNWLTRQRY-NH2.C20DA-gGlu-gGlu-gGlu-gGlu-gGlu-gGlu-eLys(1,2)]”, for which the EC50 came to 24.8 nM on hNPY2R (setting [5]), 0.98 nM at hGIPR (setting [2]) and 0.33 nM on hGLP1R (setting [4]).
Turning to `CC[C@H](C)[C@H](NC(=O)[C@H](CC(C)C)NC(=O)[C@H](Cc1c[nH]c2ccccc12)NC(=O)[C@H](CCC(=O)O)NC(=O)[C@@H](NC(=O)[C@H](Cc1ccccc1)NC(=O)[C@H](C)NC(=O)C(C)(C)NC(=O)[C@H](CCC(N)=O)NC(=O)[C@H](C)NC(=O)[C@H](CCC(N)=O)NC(=O)[C@H](CCCCN)NC(=O)[C@H](CCC(=O)O)NC(=O)[C@H](CC(C)C)NC(=O)C(C)(C)NC(=O)[C@@H](NC(=O)[C@H](CO)NC(=O)[C@H](Cc1ccc(O)cc1)NC(=O)[C@H](CC(=O)O)NC(=O)[C@H](CO)NC(=O)[C@@H](NC(=O)[C@H](Cc1ccccc1)NC(=O)[C@@H](NC(=O)CNC(=O)[C@H](CC(=O)O)NC(=O)C(C)(C)NC(=O)[C@@H](N)Cc1ccc(O)cc1)[C@@H](C)O)[C@@H](C)O)[C@@H](C)CC)C(C)C)C(=O)N[C@@H](CCCCNC(=O)[C@@H](N)CCCCNC(=O)CC[C@H](NC(=O)CC[C@H](NC(=O)CC[C@H](NC(=O)CC[C@H](NC(=O)CC[C@H](NC(=O)CC[C@H](NC(=O)CCCCCCCCCCCCCCCCCCC(=O)O)C(=O)O)C(=O)O)C(=O)O)C(=O)O)C(=O)O)C(=O)O)C(=O)NCC(=O)NCC(=O)N1CCC[C@H]1C(=O)N[C@@H](CO)C(=O)N[C@@H](CO)C(=O)NCC(=O)N[C@@H](C)C(=O)N[C@@H](CO)C(=O)N[C@@H](CC(C)C)C(=O)N[C@@H](CCCNC(=N)N)C(=O)N[C@@H](Cc1c[nH]cn1)C(=O)N[C@@H](Cc1ccc(O)cc1)C(=O)N[C@@H](Cc1ccc(O)cc1)C(=O)N[C@@H](CC(N)=O)C(=O)N[C@@H](Cc1c[nH]c2ccccc12)C(=O)N[C@@H](CC(C)C)C(=O)N[C@H](C(=O)N[C@@H](CCCNC(=N)N)C(=O)N[C@@H](CCC(N)=O)C(=O)N[C@@H](CCCNC(=N)N)C(=O)N[C@@H](Cc1ccc(O)cc1)C(N)=O)[C@@H](C)O` [Compound 87, Y-Aib-D-G-T-F-T-S-D-Y-S-I-Aib-L-E-K-Q-A-Q-Aib-A-F-V-E-W-L-I-K(1,3)-GGPSSGASLRHYYNWLTRQRY-NH2.C20DA-gGlu-gGlu-gGlu-gGlu-gGlu-gGlu-eLys(1,2)], the EC50 at hNPY2R (hNPY2R 0.5% hP) was found to be 20.7 nM; at hGIPR (hGIPR 0.5% hP), 0.58 nM; on hGLP1R (hGLP1R 0.5% hP), 0.08 nM; at hGLP1R (hGLP1R 100% hP), 2 nM.
Turning to “H-Y[Aib]EGTFTSDYSI[Aib]LEEQAQ[Aib]AFVEWLIK([εLys-AEEA-γGlu-γGlu-γGlu-γGlu-γGlu-C20 diacid])GGPSSGASLRHYYNWLTRQRY-NH2 [Compound 110, Y-Aib-E-G-T-F-T-S-D-Y-S-I-Aib-L-E-E-Q-A-Q-Aib-A-F-V-E-W-L-I-K(1,3)-GGPSSGASLRHYYNWLTRQRY-NH2.C20DA-gGlu-gGlu-gGlu-gGlu-gGlu-OEG-eLys(1,2)]”, the EC50 came out at 17.5 nM on hNPY2R (setting [5]), 0.15 nM at hGIPR (setting [2]), 1.14 nM on hGIPR (setting [3]) and 0.15 nM on hGLP1R (setting [4]).
In the case of “H-Y[Aib]EGTFTSDYSI[Aib]LEKQAQ[Aib]AFVEWLIK([εLys-γGlu-γGlu-γGlu-γGlu-γGlu-γGlu-C20 diacid])GGPSSYVSIRHYYNWLTRQRY-NH2 [Compound 9, Y-Aib-E-G-T-F-T-S-D-Y-S-I-Aib-L-E-K-Q-A-Q-Aib-A-F-V-E-W-L-I-K(1,3)-GGPSSYVSIRHYYNWLTRQRY-NH2.C20DA-gGlu-gGlu-gGlu-gGlu-gGlu-gGlu-eLys(1,2)]”, the EC50 is 15.2 nM on hNPY2R (setting [5]); 18.9 nM on hNPY2R (setting [1]); 0.21 nM at hGIPR (setting [2]); 2.03 nM at hGIPR (setting [3]); 0.46 nM at hGLP1R (setting [4]).
Turning to “H-Y[Aib]EGTFTSDYSI[Aib]LEKQAQ[Aib]AFVEWLIK([εLys-γGlu-γGlu-γGlu-γGlu-γGlu-γGlu-C20 diacid])GGPSSGASLLHYYNWLTRQRY-NH2 [Compound 210, Y-Aib-E-G-T-F-T-S-D-Y-S-I-Aib-L-E-K-Q-A-Q-Aib-A-F-V-E-W-L-I-K(1,3)-GGPSSGASLLHYYNWLTRQRY-NH2.C20DA-gGlu-gGlu-gGlu-gGlu-gGlu-gGlu-eLys(1,2)]”, the EC50 on hNPY2R (setting [5]) was 54.1 nM; at hGIPR (setting [2]), 0.28 nM; on hGLP1R (setting [4]) it was 0.19 nM.
Regarding “H-Y[Aib]EGTFTSDYSI[Aib]LEKQAQ[Aib]AFVEWLIK([εLys-γGlu-γGlu-γGlu-γGlu-γGlu-γGlu-C20 diacid])GGPSSYVSLRHYYNWLTRQRY-NH2 [Compound 40, Y-Aib-E-G-T-F-T-S-D-Y-S-I-Aib-L-E-K-Q-A-Q-Aib-A-F-V-E-W-L-I-K(1,3)-GGPSSYVSLRHYYNWLTRQRY-NH2.C20DA-gGlu-gGlu-gGlu-gGlu-gGlu-gGlu-eLys(1,2)]”, the EC50 on hNPY2R (setting [5]) worked out at 11.9 nM; at hNPY2R (setting [1]), 26.4 nM; at hGIPR (setting [2]) it was 0.48 nM; at hGIPR (setting [3]), 4.36 nM; at hGLP1R (setting [4]) it was 0.46 nM.
Turning to “H-Y[Aib]EGTFTSDYSI[Aib]LEKQAQ[Aib]AFVEWLIK([AEEA-AEEA-γGlu-γGlu-γGlu-γGlu-C18 diacid])GGPSEPASLRHYYNWLTRQRY-NH2 [Compound 256, Y-Aib-E-G-T-F-T-S-D-Y-S-I-Aib-L-E-K-Q-A-Q-Aib-A-F-V-E-W-L-I-K(1,3)-GGPSEPASLRHYYNWLTRQRY-NH2.C18DA-gGlu-gGlu-gGlu-gGlu-OEG-OEG(1,2)]”, the EC50 on hNPY2R (setting [5]) amounted to 10.9 nM; on hGIPR (setting [2]), 0.23 nM; at hGIPR (setting [3]), 1.56 nM; at hGLP1R (setting [4]) it was 0.18 nM.

The record behind these values is patent US20240247080A1, “GLP1/GIP/NPY2 RECEPTOR TRIPLE AGONISTS” (Boehringer Ingelheim International GmbH, priority 2022, published 2024).
